In a melting point compilation (Tetko et al.; mined from patent text by program, amines drawn as free bases though some values may be those of a salt):

Compound | melting point [°C]
C#Cc1ncn2c(C(F)F)cc(-c3ccc(C(F)(F)F)cc3)nc12 | 135
Cc1cc(Cl)ccc1OC(Cn1cncn1)C(=O)C(C)(C)C (centres undefined) | 63 to 65
COc1nc(N)nc(SC(F)F)n1 | 146 to 150
O=C(NO)c1cnc(N(CCO)Cc2cc3nc(-c4cccc5[nH]ncc45)nc(N4CCOCC4)c3s2)nc1 | 190 to 194
N#Cc1cnc2cc(/C=C/CCCCCCCCCN3CCOCC3)ccc2c1Nc1ccc(Cl)cc1Cl | 105 to 106
O=Cc1ccc(C=CC(=O)N2CCc3c([nH]c4ccccc34)C2c2ccc3c(c2)CCO3)cc1 (centres undefined) | 175
CC(C)CC(=O)CNC(=O)c1ccc(Cl)cc1 | 127 to 129
CCCCCOc1ccc(C(=O)Nc2ccc3cc(CN4CCCC4)cnc3c2C)c(F)c1 | 143
COc1ccc2c(c1)c(C1CCN(CCOc3ccccc3C(=O)O)CC1)cn2Cc1ccoc1 | 153 to 154
O=C1CCCc2nc3ccccc3c(NCc3cccc(C(F)(F)F)c3)c21 | 147 to 149
O=C(Nc1ccc(N2CCOCC2)c(C(F)(F)F)c1)c1ccc(F)c(OCc2cnc3ccccc3c2)c1 | 81 to 84
CC(C)S(=O)(=O)c1ccc2c(c1)nc(CC(C)(C)C)n2CCN(C)C | 116
CC(C)CN1N=C2C=NC(c3ccccc3)=CN2C1CC(=O)O (centres undefined) | 160
CNC(=O)NS(=O)(=O)c1cc(CCNC(=O)c2cc(Cl)ccc2OC)ccc1-c1ccco1 | 118 to 120
O=C(O)c1cc(Cl)c(Cl)nc1Cl | 164 to 168
CCn1cc(C(=O)O)c(=O)c2cc(F)c(Cl)cc21 | 279 to 281
CC(=O)c1ccc2c(c1)CN(C(=O)C(F)(F)F)CC2 | 80
Cn1c(NC2CCNC(Cc3ccccc3)C2)nc2ccccc21 (centres undefined) | 86.3
CCCOc1n[nH]c(=O)[nH]1 | 156
COc1cc(O)c(C#N)c2cc(-c3ccc(O)cc3)oc12 | 286 to 288
O=c1ccn(CCO)c(C(O)c2ccc(Br)cc2)c1O (centres undefined) | 189 to 193
COc1ccc(Br)cc1CC#N | 60.5 to 60.9
NC(=O)c1cn(Cc2c(F)cccc2F)nn1 | 237 to 240
CC(C)=NNc1cc2c(nn1)CCN(C(=O)c1ccc(Cl)cc1)C2 | 221 to 223
CCNC(=S)NS(=O)(=O)c1cc(CCNC(=O)c2cc(Cl)ccc2OC)ccc1-c1ccccc1 | 168 to 170

Compound | melting point [°C]
O=C(Cc1cccc2ccccc12)Nc1cc([C@H]2C[C@@H](NC(=O)c3cccc(C(F)(F)F)c3)C2)[nH]n1 | 143
CCCCN(Cc1ccc(-c2ccccc2-c2nnn[nH]2)cc1)c1nc(C)ncc1C(=O)OCC | 164 to 166
CN(CCN1CCN(c2ccc(C(F)(F)F)cc2)CC1)C[C@@]1(C)Cn2cc([N+](=O)[O-])nc2O1 | 148 to 150
O=C(c1ccncc1)c1cc(-c2cccnc2)c(N2CCOCC2)s1 | 128
Cc1ccc(-c2nnc(N3CCC(O)C3)nc2-c2ccc(C)cc2)cc1 (centres undefined) | 147 to 150
CCn1ncc2c1NC(=O)CC2C(F)(F)F (centres undefined) | 129 to 130
c1ccc(CN2CCN(Cc3cc4ccccc4[nH]3)CC2)cc1 | 157 to 159
C=C(Br)Cc1cccs1 | 69 to 71
CSC(=S)C1(c2cccc(C)n2)SCCCS1 | 92
Cn1c2c(c3ccccc31)CCOC2(C)C | 96 to 97
CCCCOc1ccc(-c2ccc([C@@]3(CC(=O)O)CCCCS3(=O)=O)s2)cc1 | 179 to 180
COC(=O)c1ccc(NCc2cc(O)ccc2O)cc1 | 175
O=C(O)c1cn(C2CC2)c2cc(N3CCC(c4cccnc4)C3)c(F)cc2c1=O (centres undefined) | 233 to 236
CCOC(=O)Cc1ccc(OCCCN2CCC(C(O)(c3ccc(F)cc3)c3ccc(F)cc3)CC2)c(OC)c1 | 110 to 112
CCCCCCCCCCCCCCCC(=O)Nc1ccc(O)c(C(C)=O)c1 | 120 to 122
CCS(=O)(=O)Nc1cc(-c2ncnc(NOC)c2Cl)c(F)cc1C#N | 188 to 189
O=C(O)c1ccccc1Nc1ccnn1Cc1ccccc1 | 190
COc1ccc(N2C(=O)C3=C(SCCO3)C2O)nn1 (centres undefined) | 165
CC(C)Nc1ccccc1C(=O)O | 109 to 110
Cc1nc(N2CCCC2=O)sc1C(=O)NCc1ccccc1 | 222 to 224
Cc1nc2ccc3cccnc3c2nc1C | 159 to 162
CC(C)Cc1cc(OCc2ccccc2)c2c(c1)OC(C)(C)CC2C(=O)O (centres undefined) | 152 to 153
N/C(=C1/Sc2ccccc2C1=O)c1ccccc1Cl | 167 to 168
Cc1cc2ncc(C(=O)O)c(N(C)S(=O)(=O)c3ccc(Oc4ccncc4)cc3)n2n1 | 246 to 248
COc1c(F)c(N)cc(F)c1F | 45 to 47

Compound | melting point [°C]
CN1Cc2c(-c3nc(C4CC4)no3)ncn2-c2cccc(Cl)c2C1=O | 183 to 184
O=C(O)C1CCC2CCCCC2N1 (centres undefined) | 173 to 176
CC(C)Oc1ccc(CCCO)c(Oc2ncc(C(F)(F)F)cc2Cl)c1 | 72 to 73
N#CC(=NNc1c(Cl)cc(C(F)(F)F)cc1Cl)c1ccc(C#N)cc1 | 186 to 187
N#Cc1cccc(NC(=O)CN2CCC(Cc3ccccc3)CC2)c1 | 88 to 90
O=c1[nH]c2ncc(-c3cccc(-c4nc[nH]n4)c3)nc2n1CC1CCCCC1 | 305 to 307
Cc1cc2c(cc1Br)cc1n2[C@H](C)CN(C(=O)OC(C)(C)C)C1 | 113 to 114
O=C(O)c1cccc2cc(Sc3cc(Cl)ncn3)ccc12 | 209
Cc1ccccc1Nc1nc(Cl)nc2c(C)cccc12 | 125 to 126
O=C(Nc1ccc(S(=O)(=O)C[N+](=O)[O-])cc1)c1ccccc1 | 211 to 212
CCCCCCC(=O)CCCCCCCC(COC(C)=O)(COC(C)=O)NC(C)=O | 88 to 89
O=c1c(-c2ccc(Cl)cc2)c[nH]n1-c1ncccn1 | 190 to 191
CONC(=N)NC(=O)Nc1c(C)cccc1C | 78 to 80
Clc1ccc2nc(-c3cccnc3)[nH]c2c1 | 244 to 246
Cc1cc(Oc2cccc([N+](=O)[O-])c2N(C)C(=O)OC(C)(C)C)cc(C)c1NC(=O)OC(C)(C)C | 154 to 156
CCCCc1c(CN2C(=O)c3ccccc3C2=O)c(CC(C)C)nc2ccc(OCc3ccccc3)cc12 | 166 to 168
Oc1c(CN2CCSCC2)ncc2c1COC2c1ccccc1 (centres undefined) | 185
CC(=O)N1CCc2ccc(N)cc2C1 | 98 to 100
O=C(Nc1cccc2c1C(=O)OC2=O)c1ccc(Cl)s1 | 195
CC(C)S(=O)(=O)Nc1ccc(C(=O)Nc2ccc(Br)cc2)cc1 | 213 to 214
Cc1ccc(-c2ncc3c(n2)CCCC3)nc1-c1ccc(C#N)cc1 | 178 to 182
CC1(C)Oc2ccc(OCc3nc4cc(F)c(F)cc4s3)cc2[C@H](O)[C@@H]1c1cccc(NS(=O)(=O)C(F)(F)F)c1 | 191 to 193
Cc1ccc(C(O)c2nc3c(cc2C)CCCCC3)cc1 (centres undefined) | 143 to 145
COc1ccc(S(=O)(=O)N2C(=O)C(c3ccccc3OC)(N3Cc4cc(OC)c(OC)cc4C[C@H]3C(=O)N(C)C)c3cc(Cl)ccc32)c(OC)c1 (some centres undefined) | 157
